Measured values from patent publication US9024022B2, “Substrates of O6-alkylguanine-DNA alkyltransferase and mutants thereof” (Cis Bio International, priority 2008, dated 2015).
pEC50: −log10 of the molar value.

Molecular target: T1, N-AGT enzyme (AGT-mGluR2 fusion protein) (Homo sapiens, UniProt P16455)
T1 construct: fused on or other part: type 2 metabotropic glutamate receptor (mGluR2)
Assay: Enzymatic reactivity test in a cell model, N-AGT mutant
Type: cell-based
Details: living cells, N-AGT mutant; labeling 1 h at 37° C.; read-out: half saturation concentration of the enzyme
Procedure: This procedure makes it possible to test the reactivity of substrates according to the invention with an AGT expressed by COS 7 cells in the form of a fusion protein with the type 2 glutamate transmembrane receptor (mGluR2).
Various mutants of AGT were analyzed in this study: SNAP-tag-ST26 or CLIP-tag from Covalys or the N-AGT mutant described by Gronemeyer et al. (Protein Engineering, Design & Selection, Vol. 19, No. 7, pp. 309-316, 2006).
The transient transfection of the cells is carried out by electroporation using a Biorad electroporator: 10 million cells are transfected by 1 μg SNAP-tag-mGluR2+3 μg pcdna3.1 in a final volume of 300 μl. The electroporation parameters are: 280 V & 1000 μF. […]
The labeling of the AGT-mGluR2 fusion protein takes place in 100 μl of complete medium with increasing concentrations of BG-fluorophore or BG-L1-A-L2-fluorophore according to the invention for 1 h at 37° C. Before the reading, 4 washing operations are carried out with 100 μl of Tris-Krebs.
For the substrates bearing fluorophores ATTO647 (example 2), DY647 (examples 1 and 5) and fluorescein-5-EX (example 3), the reading is carried out in 100 μl of Tris-Krebs in direct fluorescence at 682 nm on a Rubystar machine, and at 520 nm for those bearing fluorescein-5-EX (example 3). […]

T1 sequence (P16455 whole entry, looked up, the tested form may be a part): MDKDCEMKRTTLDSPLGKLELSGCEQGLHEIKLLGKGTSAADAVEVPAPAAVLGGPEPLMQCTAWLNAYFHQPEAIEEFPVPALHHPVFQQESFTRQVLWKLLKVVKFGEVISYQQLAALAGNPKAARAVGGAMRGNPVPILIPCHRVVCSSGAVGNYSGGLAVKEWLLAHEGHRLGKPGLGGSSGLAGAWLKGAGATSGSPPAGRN

Substance: Tb(KR)-methylbenzamide-BG [BG-methylbenzamide-Tb(KR)]
- pEC50: 8.19
